# Columns and labels:
# L929 cells [1] = assay: Azide-reporter generation by confocal microscopy (DBCO-Cy5 MFI), L929; assay type: cell-based, mouse; settings: 50 μM, 72 h; DBCO-Cy5 20 μM 1 h
# Method: (§1) For azide generation analysis in breast cancer cells and mouse fibroblasts, MCF-7 cells were cultured in 5% fetal bovine serum and RPMI 1640 medium and L929 cells were cultured in 10% fetal bovine serum and DMEM medium at 37 °C in a 5% CO2 incubator.
# (§2) For fluorescence quantification, 4 × 10^4 cell per mL of MCF-7 and 1 × 10^4 cell per mL of L929 cells were seeded into a 35 mm covered glass-bottom dishes and incubated with 50 μM Ac4ManNAz-, 4-, and 5-containing medium for 72 h at 37 °C CO2 incubator, respectively. Then to visualize the azide groups, the sugar-containing medium was removed and the cells were washed twice with PBS and further incubated with 20 μM dibenzylcyclooctyne-conjugated Cy5 (DBCO-Cy5)-containing fresh medium for 1 h at 37 °C. Then, the cells were washed twice with PBS and fixed with formaldehyde fixative for 10 min in dark conditions. After fixation, the cells were washed twice with PBS and mounted with 4,6-diamidino-2-phenylindole (DAPI) (5 μg mL^−1). The cells were observed using a confocal laser microscope (Nikon A1R Confocal with 405, 445, 488, 514, 561 and 640 nm lasers). The mean fluorescence intensity was analyzed using ImageJ software and the data were represented as absolute values.
# [2] = Cell viability of L929 cells after azide-modified sugars (MTT); assay type: cell-based; settings: mouse, L929 fibroblast cells, 50 μM sugar, no change compared to control
# MCF-7 cells [3] = assay: Azide-reporter generation by confocal microscopy (DBCO-Cy5 MFI), MCF-7; assay type: cell-based, human; settings: breast cancer MCF-7 versus normal fibroblast L929
# Method: as §1, §2
# L929 cells [4] = assay: Azide-reporter generation by Western blotting, L929; assay type: cell-based, mouse; settings: 50 μM, 72 h; lysates reacted with phosphine-PEG3-biotin
# Method: as §1
# To analyse the engineered azide groups in glycoproteins in vitro, 4 × 10^4 cell per mL of MCF-7 and 1 × 10^4 cell per mL of L929 cells were seeded into 6-well plates and incubated with 50 μM Ac4ManNAz-, 4-, and 5-containing medium for 72 h at 37 °C CO2 incubator, respectively. Cells were then washed twice with ice cold PBS and lysed using ice cold RIPA buffer (Thermo Fisher Scientific, UK) with 1% protease inhibitor cocktail. Lysates were centrifuged at 12 000 rpm for 10 min at 4 °C to remove cell debris. The total protein of each sample was quantified by DC assay (Bio-rad DC Protein Assay Kit, Bio-rad, UK). The lysates were then incubated with 0.5 μM phosphine-PEG3-biotin (Thermo Fisher Scientific, UK) for 12 h at room temperature. The proteins from each sample were mixed with 1× sodium dodecyl sulfate (SDS) gel-loading buffer (125 mol L^−1 Tris, pH 6.8, 5% glycerol, 2% SDS, 1% β-mercaptoethanol, and 0.006% bromophenol blue) and boiled for 5 min. Then, 20 μg of proteins was separated by 8% SDS – polyacrylamide gel electrophoresis and transferred onto PVDF membranes. The membranes were blocked for 1.5 h at room temperature in 0.5% bovine serum albumin (BSA) containing 1× TBST solution (10 mol L^−1 Tris, pH 7.4, 100 mol L^−1 NaCl, and 0.1% Tween 20). Then, the membranes were incubated with streptavidin-HRP (Cell Signalling Technology, UK) containing 1× TBST solution for overnight at 4 °C. Next day, the membranes were washed three times using 1× TBST and protein band was detected with an ECL system.
# L929 cells [5] = assay: MTT assay, prodrug activation and cytotoxicity in L929 cells; assay type: cell-based, mouse; settings: for prodrug activation on L929 cells: L929 cells pre-treated with azido-sialic acid derivatives 4 and 5, 50 μM; for IC50: Mus musculus, MTT, mean ± SEM (n = 3); for IC50 on L929 cells relative to MCF-7 cells: non-engineered cells, L929 IC50 higher than MCF-7 IC50
# Method: (§3) The in vitro prodrug activation and anticancer activity of compounds 10 and 12 was determined using the MTT assay. MCF-7 cells or L929 cells were incubated with 50 μM Ac4ManNAz-, 4-, and 5-containing RPMI medium or 50 μM Ac4ManNAz-, 4-, and 5-containing DMEM medium, respectively for 72 h at 37 °C CO2 incubator as described above. Then, the engineered and non-engineered MCF-7 cells or L929 cells were seeded on 96-well plates (4 × 10^4 cells per mL) or (1 × 10^5 cells per mL), respectively and incubated at 37 °C for 24 h. Cells were then treated with a range of concentration of both prodrugs 10 and 12 (0.001–10 μM) and incubated for 72 h. After incubation, the treatments-containing medium was removed and 20 μL of 0.5 mg mL^−1 MTT in PBS solution was added in each well for 4 h. The resulting formazan crystals were dissolved in 100 μL of DMSO after carefully removing the MTT solution. The absorbance was recorded at 570 nm by InfiniteF50 TECAN microplate reader. The cells without any treatment were used as the control. Assays were performed in three replicates, which the statistical mean and standard deviation were used to estimate the cell viability. IC50 (inhibitory concentration to induce 50% cell death) values were determined using GraphPad Prism 8.0.2 according to the fitted data.
# MCF-7 cells [6] = assay: MTT assay, prodrug activation and anticancer activity in MCF-7 cells; assay type: cell-based, human; settings: for IC50: Homo sapiens, MTT, mean ± SEM (n = 3)
# Method: as §3
# [7] = L929, 4-engineered L929 cells (50 μM 4, 72 h pre-treatment)
# [8] = L929, 5-engineered L929 cells (50 μM 5, 72 h pre-treatment)
# [9] = L929, 72 h, non-engineered L929 cells, 72 h
# [10] = L929, Ac4ManNAz-engineered L929 cells (50 μM, 72 h pre-treatment)
# [11] = MCF7, 4-engineered MCF-7 cells (50 μM 4, 72 h pre-treatment)
# [12] = MCF7, 5-engineered MCF-7 cells (50 μM 5, 72 h pre-treatment)
# [13] = MCF7, 72 h, non-engineered MCF-7 cells, 72 h
# [14] = MCF7, Ac4ManNAz-engineered MCF-7 cells (50 μM, 72 h pre-treatment)
SMILES,fluorescence in L929 cells (confocal) (L929 cells [1]),viability at 50 µM [2],higher azide expression on MCF-7 cells versus L929 cells (MCF-7 cells [3]),azide incorporation in L929 cells (Western blotting) (L929 cells [4]),prodrug activation on L929 cells (L929 cells [5]),IC50 (L929 cells [5]; [7]),IC50 (L929 cells [5]; [8]),IC50 (L929 cells [5]; [9]),IC50 (L929 cells [5]; [10]),IC50 on L929 cells relative to MCF-7 cells (L929 cells [5]),IC50 (MCF-7 cells [6]; [11]),IC50 (MCF-7 cells [6]; [12]),IC50 (MCF-7 cells [6]; [13]),IC50 (MCF-7 cells [6]; [14]),"decrease in potency of prodrug versus doxorubicin (MCF-7 cells [6]; non-engineered MCF-7 cells, IC50 of prodrug 12 vs doxorubicin 11)"
"CC(=O)N[C@H]1[C@H]([C@H](O)[C@H](O)CN=[N+]=[N-])OC(O)(C(=O)O)C[C@@H]1O (stereo in doubt) [Compound 4, 9-Azido-5-acetamido-3,5,9-trideoxy-β-D-glycero-D-galacto-2-nonulosonic acid]",did not show any fluorescence,92.4 ± 1.6%,~17 fold,did not show any azide-reporter generation,,,,,,,,,,,
"CC(=O)OC[C@H]1OC(OC(C)=O)[C@@H](NC(=O)CN=[N+]=[N-])[C@@H](OC(C)=O)[C@@H]1OC(C)=O (stereo partly drawn) [Ac4ManNAz, Tetra-O-acetyl azidomannosamine, reference compound]",,97.5 ± 5.2%,,caused the azide incorporation,,,,,,,,,,,
"CC(=O)N[C@H]1[C@H]([C@H](OC(C)=O)[C@@H](CN=[N+]=[N-])OC(C)=O)O[C@@](OC(C)=O)(C(=O)O)C[C@@H]1OC(C)=O [Compound 5, 9-Azido-5-acetamido-2,4,7,8-tetracetyl-3,5,9-trideoxy-β-D-glycero-D-galacto-2-nonulosonic acid]",did not show any fluorescence,122 ± 5.5%,~17 fold,did not show any azide-reporter generation,,,,,,,,,,,
"COc1cccc2c1C(=O)c1c(O)c3c(c(O)c1C2=O)C[C@@](O)(C(=O)CO)C[C@@H]3OC1C[C@@H](NC(=O)c2ccccc2P(c2ccccc2)c2ccccc2)[C@@H](O)[C@@H](C)O1 (stereo partly drawn) [Dox-prodrug 12, 2-(Diphenylphosphino)-N-((2R,3R,4R)-3-hydroxy-2-methyl-6-(((1S,3S)-3,5,12-trihydroxy-3-(2-hydroxyacetyl)-10-methoxy-6,11-dioxo-1,2,3,4,6,11-hexahydrotetracen-1-yl)oxy)tetrahydro-2H-pyran-4-yl)benzamide]",,,,,No activation,11.2 ± 1.04 µM,10.7 ± 0.22 µM,11.3 ± 0.23 µM,7.7 ± 0.26 µM,approximately 2 fold,0.5 ± 0.03 µM,1.6 ± 0.09 µM,4.6 ± 0.19 µM,0.2 ± 0.01 µM,more than 20 fold
"COc1cccc2c1C(=O)c1c(O)c3c(c(O)c1C2=O)C[C@@](O)(C(=O)CO)C[C@@H]3O[C@H]1C[C@H](N)[C@H](O)[C@H](C)O1 [Doxorubicin 11, doxorubicin, reference compound]",,,,,,,,2.04 ± 0.009 µM,,,,,0.2 ± 0.03 µM,,
"O=C(Nc1ccc(N(CCCl)CCCl)cc1)c1ccccc1P(c1ccccc1)c1ccccc1 [N-mustard prodrug 10, N-(4-(Bis(2-chloroethyl)amino)phenyl)-2-(diphenylphosphaneyl)benzamide]",,,,,No activation,29.9 ± 0.69 µM,29.7 ± 1.2 µM,31.4 ± 0.44 µM,21.1 ± 0.58 µM,approximately 2 fold,2.1 ± 1.11 µM,9.3 ± 0.63 µM,20.8 ± 1.27 µM,0.6 ± 0.08 µM,
